“Also recorded” adds a separate entry of the source. Some results are limits rather than exact numbers.

In data set [1] the test system is CAR-expressing, transduced T cells. As to the kind of experiment: Proliferation of CARTs co-cultured with Nalm-6 cells in the presence of RAD001, 4 days. Conditions: low doses of RAD001, cell culture, 4 days of co-culture. In kind it is cell-based. The method, then: CARTs were co-cultured with Nalm-6 cells in the presence of different concentrations of RAD001. The number of CAR-positive CD3-positive T cells (black) and total T cells (gray) was assessed after 4 days of co-culture.

The subject of data set [2] is humanized CD19 CART cells. As to the kind of experiment: In vivo proliferation of humanized CD19 CART cells with and without RAD001 dosing. The note with it: RAD001 0.003 mg/kg daily with huCTL019. The method, then: Circles denote PBS; squares denote huCTL019; triangles denote huCTL019 with 3 mg/kg RAD001; inverted triangles denote huCTL019 with 0.3 mg/kg RAD001; diamonds denote huCTL019 with 0.03 mg/kg RAD001; and circles denote huCTL019 with 0.003 mg/kg RAD001.

In data set [3] the test system is huCART19 cells cultured with Nalm-6. The experiment in a line: CART proliferation in 4 day co-culture with RAD001. Format: cell-based, human. Conditions: 0.0032 and 0.016 nM RAD001. The method, then: To evaluate the functionality of CARTs, the T cells are thawed and counted, and viability is assessed by Cellometer. The number of CAR-positive cells in each culture is normalized using non-transduced T cells (UTD). The impact of RAD001 on CARTs was tested in titrations with RAD001, starting at 50 nM. The target cell line used in all co-culture experiments is Nalm-6, a human pre-B cell acute lymphoblastic leukemia (ALL) cell line expressing CD19 and transduced to express luciferase.
For measuring the proliferation of CARTs, T cells are cultured with target cells at a ratio of 1:1. The assay is run for 4 days, when cells are stained for CD3, CD4, CD8 and CAR expression. The number of T cells is assessed by flow cytometry using counting beads as reference.

Data set [4] concerns NALM6-luc tumors. As to the kind of experiment: NALM6-luc tumor growth under daily oral RAD001. In kind it is in vivo, NSG mice. The note with it: daily oral dosing of RAD001 alone. The protocol: NALM6-luc cells: The NALM6 human acute lymphoblastic leukemia (ALL) cell line was developed from the peripheral blood of a patient with relapsed ALL. The cells were then tagged with firefly luciferase. These suspension cells grow in RPMI supplemented with 10% heat inactivated fetal bovine serum.
Mice: 6 week old NSG (NOD.Cg-Prkdc^scidIl2rg^tmIWjl/SzJ) mice were received from the Jackson Laboratory (stock number 005557).
Tumor implantation: NALM6-luc cells were grown and expanded in vitro in RPMI supplemented with 10% heat inactivated fetal bovine serum. The cells were then transferred to a 15 ml conical tube and washed twice with cold sterile PBS. NALM6-luc cells were then counted and resuspended at a concentration of 10×10^6 cells per milliliter of PBS. The cells were placed on ice and immediately (within one hour) implanted in the mice. NALM6-luc cells were injected intravenously via the tail vein in a 100 μl volume, for a total of 1×10^6 cells per mouse.
(§1) RAD001 dosing: A concentrated micro-emulsion of 50 mg equal to 1 mg RAD001 was formulated and then resuspended in D5W (dextrose 5% in water) at the time of dosing. Mice were orally dosed daily (via oral gavage) with 200 μl of the desired doses of RAD001.

Data set [5] is described as follows: PK analysis of RAD001 in tumor bearing mice. Format: in vivo, NSG mice. The method, then:
as §1
PK analysis: Mice were dosed daily with RAD001 starting 7 days post tumor implantation. Dosing groups were as follows: 0.3 mg/kg, 1 mg/kg, 3 mg/kg, and 10 mg/kg. Mice were bled on days 0 and 14 following the first and last dose of RAD001, at the following time points for PK analysis: 15 minutes, 30 minutes, 1 hour, 2 hours, 4 hours, 8 hours, 12 hours, and 24 hours.

Data set [6] concerns huCAR19 CAR T cells. As to the kind of experiment: CAR T cell expansion in vivo with RAD001 (FACS). Also noted: species or system NSG mice. Conditions: lowest doses of RAD001. The protocol:
CAR T cell dosing: Mice were administered 5×10^6 CAR T cells 7 days after tumor implantation. Cells were partially thawed in a 37 degree Celsius water bath and then completely thawed by the addition of 1 ml of cold sterile PBS to the tube containing the cells. The thawed cells were transferred to a 15 ml falcon tube and adjusted to a final volume of 10 mls with PBS. The cells were washed twice at 1000 rpm for 10 minutes each time and then counted on a hemocytometer. T cells were then resuspended at a concentration of 50×10^6 CAR T cells per ml of cold PBS and kept on ice until the mice were dosed. The mice were injected intravenously via the tail vein with 100 μl of the CAR T cells for a dose of 5×10^6 CAR T cells per mouse. Eight mice per group were treated either with 100 μl of PBS alone (PBS), or humanized CD19 CAR T cells.
as §1
Based on these doses, huCAR19 CAR T cells were dosed with and without RAD001 to determine the proliferative ability of these cells. The highest dose used was 3 mg/kg based on the levels of RAD001 in the blood 24 hours after dosing. […] Mice were monitored via FACS for T cell expansion.

Data set [7] deals with r/r B-ALL. The note with it: cited from earlier work.
The subject of data set [8] is CART123P2A CD20 cells. As to the kind of experiment: Rituximab-mediated cytotoxicity, T cell depletion. Conditions: 100 ug/ml, 48 hours of incubation. Format: cell-based. The method, then: Rituximab-mediated cytotoxicity was next assessed for the CART123 P2A CD20 cells. CART123 and CART123 P2A CD20 were incubated with Rituximab at various concentrations, 0 μg/ml, 1 μg/ml, 10 μg/ml and 100 μg/ml. Cells were harvested at 0, 4, 12, and 48 hours, and stained for CD3. The percentage of T cell depletion was computed.

The test system of data set [9] is CART123 P2A CD20 cells. The experiment in a line: Rituximab complement dependent cytotoxicity (15% rabbit complement). Format: cell-based. The protocol:
The mechanism by which the CART123P2ACD20 cell depletion is mediated was investigated. CART123 P2A CD20 cells were incubated with rituximab at different concentrations 0 μg/ml, 1 μg/ml, 10 μg/ml and 100 μg/ml, in the presence of 15% rabbit complement. […] CART123 P2A CD20 cell depletion is mediated by complement dependent cytotoxicity.

Data set [10] relates to luciferase-expressing human AML cell lines (MOLM14, MOLM13, U937) or primary AML specimens. As to the kind of experiment: Human AML xenograft models, T cell termination strategies. Conditions: for elimination of CD123-redirected CAR T cells: alemtuzumab 1 or 5 mg/kg IP, rituximab 10 mg/kg IP; for AML proliferation, antibody alone: non-CART123-treated xenograft models vs AML-only controls. Format: in vivo, mice. From the text: Three termination strategies in human AML xenograft models were examined: (1) T cell ablation with the anti-CD52 antibody alemtuzumab after treatment with 1×10^5-1×10^6 T cells lentivirally-transduced with anti-CD123-41BB-CD3zeta CART123, (2) T cell ablation with the anti-CD20 antibody rituximab after treatment with 1×10^5-1×10^6 CART123 engineered to co-express CD20 (CART123/CD20), and (3) treatment with “biodegradable” anti-CD123 mRNA-electroporated CAR T cells (RNA-CART123). Mice engrafted with luciferase-expressing human AML cell lines (MOLM14, MOLM13, U937) or primary AML specimens (n=3) were treated with CD123-redirected CAR T cells as above. The CD123 CAR construct utilized for this experiment is the 1172 construct (SEQ ID NO: 707), and were administered to the mice at week 1. For T cell depletion studies, alemtuzumab 1 or 5 mg/kg was injected intraperitoneally (IP) at week 2, week 3, or week 4 (e.g., 1, 2, or 3 weeks post-CART123) to determine optimal dosing and timing of T cell ablation. In subsequent studies, rituximab 10 mg/kg was injected IP 4 weeks after CART123/CD20, or 1×10^7 RNA-CART123 was injected intravenously at 5, 9, and 16 days after AML engraftment. Mice were followed by weekly bioluminescent imaging and/or quantitative flow cytometry analyses of blood, spleen, and/or bone marrow.
Background: Xenograft models place foreign cells or tissue in a host animal.

Data set [11] relates to AML290 cells. The experiment in a line: Pediatric patient-derived xenograft model. In kind it is in vivo, mice. The protocol: Alemtuzumab treatment was also examined in a second in vivo model, a pediatric patient-derived xenograft model. In this model, mice were injected with AML290 cells. Six weeks after AML engraftment, the mice were administered saline, untransduced T cells, or CART123 cells (represented at week 0). Alemtuzumab was administered at 5 mg/kg to a subset of the mice receiving CART123 cells at week 4. […] Analysis of AML present in different organs of the xenografts after CART123 dosing was determined by flow cytometry.

As for `CO[C@H]1C[C@@H]2CC[C@@H](C)[C@@](O)(O2)C(=O)C(=O)N2CCCC[C@H]2C(=O)O[C@H]([C@H](C)C[C@@H]2CC[C@@H](OCCO)[C@H](OC)C2)CC(=O)[C@H](C)/C=C(\C)[C@@H](O)[C@@H](OC)C(=O)[C@H](C)C[C@H](C)/C=C/C=C/C=C/1C` [RAD001, (1R,9S,12S,15R,16E,18R,19R,21R,23 S,24E,26E,28E,30S,32S,35R)-1,18-dihydroxy-12-{(1R)-2-[(1S,3R,4R)-4-(2-hydroxyethoxy)-3-methoxycyclohexyl]-1-methylethyl}-19,30-dimethoxy-15,17,21,23,29,35-hexamethyl-11,36-dioxa-4-aza-tricyclo[30.3.1.04,9]hexatriaconta-16,24,26,28-tetraene-2,3,10,14,20-pentaone], the “proliferation of CAR-expressing, transduced T cells” value in [1] is listed as “enhanced”. In [2], the “CART cell proliferation in vivo” value is given as “enhancement in CART cell proliferation”. For the same compound, the “proliferation of huCART19 cells” value in [3] is listed as “proliferation was higher than observed without the addition of RAD001”. Moreover, the “growth of NALM6-luc tumors” value in data set [4] was “did not have an impact on the growth of NALM6-luc tumors”. In [5] (24 hours after the final dose), the “concentration of RAD001” value was “above 10 nM”. In data set [5] (NSG, mouse, blood, oral, 24 hours after dosing, 0.3 mg/kg, day 0 and day 14, read-out: RAD001 concentrations in the blood), the concentration at 24 h is over 10 nM. In addition, the “stability in the blood” value in [5] (tumor bearing mice) is reported as “fairly stable in the blood”. In addition, in data set [6], the “proliferation of the CAR T cells in vivo” value is “enhanced proliferation of the CAR T cells”.
On to “blinatumomab: bi-specific anti-CD19/CD3 antibody”, for which the “share of relapses that are CD19-negative” value in [7] is reported as “about 30%”.
Take Rituximab: anti-CD20 antibody: the T cell depletion result in data set [8] is on record as “direct cytotoxicity”. Further, the “cell depletion with complement” value in data set [9] (Rituximab 100 ug/ml) is “depletion of the majority of CART123 P2A CD20 cells after 4 hours of incubation”. For the same compound, the “cell depletion with complement” value in data set [9] (rituximab 1 ug/ml or 10 ug/ml) was “depletion of the majority of CART123 P2A CD20 cells after 12 hours of incubation”. Besides, in [10], the “elimination of CD123-redirected CAR T cells” value is “rapidly eliminated T cells while preserving leukemia remission; also recorded: completely eliminated CD123-redirected CAR T cells” and the “AML proliferation, antibody alone” value was “did not inhibit AML proliferation”.
On to alemtuzumab: anti-CD52 antibody, for which, in [10], the “elimination of CD123-redirected CAR T cells” value is “rapidly eliminated CART123 cells” and the “AML proliferation, antibody alone” value is listed as “did not inhibit AML proliferation”. Further, the “elimination of CD123-redirected CAR T cells” value in data set [10] (listed as Alemtuzumab) is “completely eliminated CD123-redirected CAR T cells”. Moreover, the “overall survival by timing of ablation” value in data set [10] (alemtuzumab at week 3 or week 4 vs week 2) was “improved survival”. In addition, in data set [11] (AML290), the “AML cells in spleen and bone marrow (flow cytometry)” value was “sustained ablation of AML cells in the spleen”; the “tumor progression / remission” value is given as “remained in remission”. Also, the “elimination of CART123 T cells in the peripheral blood” value in data set [11] (alemtuzumab 5 mg/kg at week 4) was “completely eliminate CART123 T cells in the peripheral blood”.

The values are drawn from patent US11591404B2, “Treatment of cancer using a CD123 chimeric antigen receptor” (Novartis AG, priority 2014, dated 2023).
